These are literature values, as cited in US20210145841A1, “ENHANCEMENT OF DELIVERY OF LIPOPHILIC ACTIVE AGENTS ACROSS THE BLOOD-BRAIN BARRIER AND METHODS FOR TREATING CENTRAL NERVOUS SYSTEM DISORDERS” (POVIVA CORP., priority 2018, published 2021).

For the data set the following is noted: in vivo.

Each structure is given as a SMILES string.

In the case of `CC1=CC[C@H]2C[C@@H]1C2(C)C` [α-Pinene, (1S,5S)-2,6,6-Trimethylbicyclo[3.1.1]hept-2-ene], the human pulmonary uptake was 60%.
